{
  "source": "paper PMC6505380",
  "about": "“An Extensively Humanized Mouse Model to Predict Pathways of Drug Disposition and Drug/Drug Interactions, and to Facilitate Design of Clinical Trials” (Drug Metabolism and Disposition, 2019)",
  "key": {"[1]": {"target": "CYP2D6 (Homo sapiens, UniProt P10635, R296C/S486T)", "experiment": "Enzyme inhibition assay, debrisoquine 4-hydroxylation (HLM, 8HUM microsomes)", "conditions": "8HUM microsomes […]; debrisoquine 67 μM in cocktail; furafylline 3, enoxacin 200, fluconazole 300, sulfaphenazole 3, quinidine 3, paroxetine 10, ketoconazole 1 μM", "procedure": "(§1) After a 5-minute preincubation at 37°C, reactions were initiated by addition of NADPH (1.3 mM). […] The samples were then centrifuged at 3000g for 55 minutes at 4°C, and an aliquot of the supernatant fraction was analyzed by LC-MS/MS. All experiments were performed at least in triplicate."}, "[2]": {"target": "T1, CYP3A4 (Homo sapiens, UniProt P08684)", "T1 construct": "pooled rifampicin-treated male and female 8HUM mice (8HUM) or pooled human liver microsomes (HLM); host or cells: liver microsomes: pooled human liver; liver of 8HUM mice carrying human CYP3A4/CYP3A7 under the human promoter", "T1 sequence (P08684 whole entry)": "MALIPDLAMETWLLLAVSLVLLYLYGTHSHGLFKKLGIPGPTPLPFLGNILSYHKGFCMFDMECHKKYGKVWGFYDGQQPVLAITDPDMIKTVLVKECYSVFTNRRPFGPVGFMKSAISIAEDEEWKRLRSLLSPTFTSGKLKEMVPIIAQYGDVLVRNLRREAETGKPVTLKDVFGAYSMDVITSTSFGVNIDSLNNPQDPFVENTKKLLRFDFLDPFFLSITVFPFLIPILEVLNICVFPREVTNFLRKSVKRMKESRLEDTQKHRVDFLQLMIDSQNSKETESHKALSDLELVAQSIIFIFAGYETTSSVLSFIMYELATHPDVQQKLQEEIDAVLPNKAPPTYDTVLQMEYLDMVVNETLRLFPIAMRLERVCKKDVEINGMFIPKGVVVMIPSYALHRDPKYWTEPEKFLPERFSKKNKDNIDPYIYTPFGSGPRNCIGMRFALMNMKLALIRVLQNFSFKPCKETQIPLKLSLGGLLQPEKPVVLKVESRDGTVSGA", "experiment": "7-Benzyloxyquinoline O-debenzylation in liver microsomes of rifampicin- or vehicle-treated 8HUM mice", "type": "in vitro ADME", "conditions": "liver microsomes of rifampicin-treated 8HUM mice"}, "[3]": {"target": "T2, CYP1A2 (Homo sapiens, UniProt P05177)", "T2 sequence (P05177 1-516)": "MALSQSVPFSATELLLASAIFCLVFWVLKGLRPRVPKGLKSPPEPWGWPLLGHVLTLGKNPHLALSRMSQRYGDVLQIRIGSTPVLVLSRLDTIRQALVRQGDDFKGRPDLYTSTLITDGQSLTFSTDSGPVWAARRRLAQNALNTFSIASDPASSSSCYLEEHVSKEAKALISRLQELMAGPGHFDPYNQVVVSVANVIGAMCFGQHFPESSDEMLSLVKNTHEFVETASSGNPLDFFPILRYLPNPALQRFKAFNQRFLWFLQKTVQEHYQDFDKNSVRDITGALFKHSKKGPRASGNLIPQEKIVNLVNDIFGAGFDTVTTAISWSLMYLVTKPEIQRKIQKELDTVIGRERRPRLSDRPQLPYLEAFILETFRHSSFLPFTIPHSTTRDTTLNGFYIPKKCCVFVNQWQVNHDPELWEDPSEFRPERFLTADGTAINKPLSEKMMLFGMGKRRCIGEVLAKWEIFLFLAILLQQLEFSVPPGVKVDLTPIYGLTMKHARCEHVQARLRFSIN", "experiment": "in vitro", "conditions": "8HUM, mouse, microsomes, pH 7.4, Inhibition of 7-methoxyresorufin metabolism", "method": "(§2) A mixture of either 7-methoxyresorufin or 7-ethoxyresorufin (1 μM) and 8HUM liver microsomes or HLM (∼0.38 mg protein/ml) in 100 mM potassium phosphate buffer (pH 7.4) supplemented with MgCl2 (3.3 mM) was incubated at 37°C for 5 minutes before the addition of NADPH (final concentration 1.2 mM). […] Slopes of the linear part of the kinetic curves were calculated using Ascent Software Version 2.4.1 (Labsystems). For each reaction two controls, with and without reaction product resorufin (40 pmol) were run. Fluorescence was measured from both control wells and the difference in fluorescence intensity between wells with and without resorufin was used for the conversion of the relative fluorescence units to the picomoles of the reaction product."}, "[4]": {"parameters": "method as in Cross et al., 2014", "conditions": "WT mice; ref Cross et al., 2014; cited from earlier work"}, "[5]": {"experiment": "Osimertinib pharmacokinetics in 8HUM mice: effect of rifampicin and β-naphthoflavone", "conditions": "female, mouse, in vivo, po, 25 mg/kg; for AUC / Cmax: female 8HUM mice, osimertinib 25 mg/kg oral", "source_text": "Humans and rodents metabolize drugs down different pathways and also generate different metabolites both in their site of oxidation as well as in different metabolite ratios when multiple sites of oxidation are involved. […] Mice were pretreated with either RIF or a combination of RIF and β-naphthoflavone (BNF), an aryl hydrocarbon receptor agonist that induces P450s in the CYP1A gene family.\nFig. 4. […] Osimertinib structure and sites of metabolism in humans (C) are also shown. […] Panel B prints no name for the measured substance; it is presumably Osimertinib, the name printed in panel A."}, "[6]": {"target": "T3, CYP2C9 (Homo sapiens, UniProt P11712)", "T3 sequence (P11712 whole entry)": "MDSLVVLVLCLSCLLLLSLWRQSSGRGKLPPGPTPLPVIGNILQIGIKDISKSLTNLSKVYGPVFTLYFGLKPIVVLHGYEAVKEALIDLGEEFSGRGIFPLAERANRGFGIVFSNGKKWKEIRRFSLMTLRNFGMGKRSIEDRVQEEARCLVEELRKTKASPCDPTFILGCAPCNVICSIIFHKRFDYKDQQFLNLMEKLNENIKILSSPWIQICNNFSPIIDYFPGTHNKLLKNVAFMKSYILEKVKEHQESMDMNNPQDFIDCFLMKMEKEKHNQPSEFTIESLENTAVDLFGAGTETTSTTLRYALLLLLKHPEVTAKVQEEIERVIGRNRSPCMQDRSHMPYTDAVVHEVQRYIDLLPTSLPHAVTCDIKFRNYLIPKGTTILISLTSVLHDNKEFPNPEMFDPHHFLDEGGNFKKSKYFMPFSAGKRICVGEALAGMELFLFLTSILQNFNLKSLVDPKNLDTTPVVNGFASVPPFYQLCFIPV", "experiment": "Enzyme inhibition assay, tolbutamide hydroxylation (HLM, 8HUM microsomes)", "conditions": "tolbutamide 2 μM in cocktail, furafylline 3, enoxacin 200, fluconazole 300, sulfaphenazole 3, quinidine 3, paroxetine 10, ketoconazole 1 μM", "procedure": "as §1"}, "[7]": {"tested_on": "CYP2D6", "experiment": "Enzyme inhibition assay, debrisoquine 4-hydroxylation (HLM, 8HUM microsomes)", "conditions": "for Debrisoquine (4-OH Debrisoquine) activity, percent of activity measured in the absence of inhibitor: HLM […], debrisoquine 67 μM in cocktail, furafylline 3, enoxacin 200, fluconazole 300, sulfaphenazole 3, quinidine 3, paroxetine 10, ketoconazole 1 μM", "procedure": "as §1"}, "[8]": {"target": "T2, CYP1A2", "method": "as §2"}, "[9]": {"tested_on": "CYP3A4", "experiment": "CYP3A4 induction by PXR activators in humanized CAR/PXR/CYP3A4 mice", "conditions": "CAR/PXR/CYP3A4 model (Supplemental Fig. 4)", "source_text": "We therefore sought to identify a specific, clinically relevant PXR agonist that was nontoxic. […] Subsequent studies were therefore undertaken using SJW to induce CYP3A4 expression in 8HUM mice."}, "[10]": {"target": "T2, CYP1A2", "experiment": "Enzyme inhibition assay, caffeine to paraxanthine (HLM, 8HUM microsomes)", "conditions": "caffeine 220 μM in cocktail, furafylline 3, enoxacin 200, fluconazole 300, sulfaphenazole 3, quinidine 3, paroxetine 10, ketoconazole 1 μM", "procedure": "as §1"}, "[11]": {"target": "T3, CYP2C9", "conditions": "sulfaphenazole 50 μM"}, "[12]": {"experiment": "Pharmacokinetics of cassette-dosed probe drugs in 8HUM mice with or without rifampicin pretreatment", "conditions": "female, mouse, in vivo, po, AUCall, female 8HUM mice, oral cassette: caffeine, debrisoquine, tolbutamide 5 mg/kg, midazolam 3 mg/kg", "procedure": "Female 8HUM mice received either two daily intraperitoneal doses of RIF (n = 4; 20–26 weeks) or vehicle (corn oil; n = 4; 25–29 weeks). […] Blood samples (10 μl) were collected at the indicated time points after dosing, mixed immediately with 10 μl of heparin (15 IU/ml), snap frozen in liquid nitrogen, and stored at approximately −70°C prior to analysis (see Supplemental Data for details).\nPharmacokinetic parameters were calculated by Phoenix WinNonlin version 8.0.0.3176 (Certara, Princeton, NJ).\nFig. 2. […] Data shown are mean ± S.D."}, "[13]": {"target": "T1, CYP3A4", "experiment": "Kinetic parameters of 1-hydroxyl midazolam formation in liver microsomes (HLM, 8HUM)", "type": "in vitro ADME", "conditions": "pH 7.4", "procedure": "All samples were handled in amber tubes under conditions of subdued light for the duration of the procedure. […] The samples were then centrifuged at 3000g for 55 minutes at 4°C and an aliquot of the supernatant fraction was analyzed by LC-MS/MS.\nCalibration curves were constructed with authentic metabolite standards and linear regression analysis used to calculate the amount of metabolite formed in each test sample. […] The 7-ethoxyresorufin O-deethylation assay was carried out as detailed below."}, "[14]": {"conditions": "RIF + BNF 80 mg/kg i.p. daily 3 days"}, "[15]": {"conditions": "RIF in diet (equivalent 10 mg/kg) 3 days"}},
  "note": "Where two headings read alike, the source gives them in different places.",
  "data": [
    {"compound": "C=C[C@H]1C[N@@]2CC[C@H]1C[C@@H]2[C@@H](O)c1ccnc2ccc(OC)cc12", "note": "[Quinidine, quinidine]", "values": [
      {"measurement": "Debrisoquine (4-OH Debrisoquine) activity, percent of activity measured in the absence of inhibitor", "setting": "[1]", "result": "43 ± 5", "unit": "%"}
    ]},
    {"compound": "c1ccc(COc2ccc3cccnc3c2)cc1", "note": "[7-BQ, 7-benzyloxyquinoline]", "values": [
      {"measurement": "Rate of 7-BQ hydroxylation (metabolism)", "setting": "[2]", "result": "4218 ± 550", "unit": "pmol/min per milligram"}
    ]},
    {"compound": "O=c1cc(-c2ccccc2)oc2c1ccc1ccccc12", "note": "[α-naphthoflavone]", "values": [
      {"measurement": "inhibition at 3.33 μM", "setting": "[3]", "result": 75, "unit": "%"}
    ]},
    {"compound": "C=CC(=O)Nc1cc(Nc2nccc(-c3cn(C)c4ccccc34)n2)c(OC)cc1N(C)CCN(C)C", "note": "[osimertinib]", "values": [
      {"measurement": "half-life", "setting": "[4]", "result": 3.5, "unit": "h"},
      {"measurement": "half-life", "setting": "[5]; 8HUM mice, osimertinib 25 mg/kg by oral gavage", "result": 20, "unit": "h"},
      {"measurement": "AUC", "setting": "[5]; Control (normal RM1 diet)", "result": "3750 ± 614", "unit": "ng·h/mL"},
      {"measurement": "Cmax", "setting": "[5]; Control (normal RM1 diet)", "result": "199 ± 29", "unit": "ng/mL"},
      {"measurement": "AUC", "setting": "[5]; [14]", "result": "661 ± 132", "unit": "ng·h/mL"},
      {"measurement": "Cmax", "setting": "[5]; [14]", "result": "71 ± 7", "unit": "ng/mL"},
      {"measurement": "AUC", "setting": "[5]; [15]", "result": "2140 ± 631", "unit": "ng·h/mL"},
      {"measurement": "Cmax", "setting": "[5]; [15]", "result": "139 ± 26", "unit": "ng/mL"}
    ]},
    {"compound": "Cc1nc2c([nH]1)c(=O)n(C)c(=O)n2Cc1ccco1", "note": "[Furafylline, furafylline]", "values": [
      {"measurement": "Tolbutamide (OH-Tolbutamide) activity, percent of activity measured in the absence of inhibitor", "setting": "[6]; 8HUM microsomes […]", "result": "63 ± 19", "unit": "%"},
      {"measurement": "Tolbutamide (OH-Tolbutamide) activity, percent of activity measured in the absence of inhibitor", "setting": "[6]; HLM […]", "result": "103 ± 25", "unit": "%"},
      {"measurement": "Debrisoquine (4-OH Debrisoquine) activity, percent of activity measured in the absence of inhibitor", "setting": "[7]", "result": "65 ± 9", "unit": "%"},
      {"measurement": "Debrisoquine (4-OH Debrisoquine) activity, percent of activity measured in the absence of inhibitor", "setting": "[1]", "result": "91 ± 13", "unit": "%"}
    ]},
    {"compound": "COc1ccc2nc3ccc(=O)cc-3oc2c1", "note": "[7-methoxyresorufin]", "values": [
      {"measurement": "Rate of 7-methoxyresorufin metabolism", "setting": "[8]", "result": "42.84 ± 9.93", "unit": "pmol/min per milligram"}
    ]},
    {"compound": "O=C1Nc2ccc(Cl)cc2[C@@](C#CC2CC2)(C(F)(F)F)O1", "note": "[EFV, efavirenz]", "values": [
      {"measurement": "Induction of CYP3A4", "setting": "[9]", "result": "effective inducers of CYP3A4"}
    ]},
    {"compound": "CCC1(c2ccccc2)C(=O)NC(=O)NC1=O", "note": "[PB, phenobarbital]", "values": [
      {"measurement": "Induction of CYP3A4", "setting": "[9]", "result": "effective inducers of CYP3A4"}
    ]},
    {"compound": "Fc1ccc([C@@H]2CCNC[C@H]2COc2ccc3c(c2)OCO3)cc1", "note": "[Paroxetine, paroxetine]", "values": [
      {"measurement": "Debrisoquine (4-OH Debrisoquine) activity, percent of activity measured in the absence of inhibitor", "setting": "[7]", "result": "52 ± 11", "unit": "%"},
      {"measurement": "Species difference in extent of inhibition of debrisoquine 4-hydroxylation (HLM vs 8HUM microsomes)", "setting": "[7]; HLM vs microsomes from 8HUM mice", "result": 4, "unit": "fold"}
    ]},
    {"compound": "OC(Cn1cncn1)(Cn1cncn1)c1ccc(F)cc1F", "note": "[Fluconazole, fluconazole]", "values": [
      {"measurement": "Tolbutamide (OH-Tolbutamide) activity, percent of activity measured in the absence of inhibitor", "setting": "[6]; 8HUM microsomes […]", "result": "41 ± 33", "unit": "%"},
      {"measurement": "Tolbutamide (OH-Tolbutamide) activity, percent of activity measured in the absence of inhibitor", "setting": "[6]; HLM […]", "result": "35 ± 21", "unit": "%"},
      {"measurement": "Caffeine (Paraxanthine) activity, percent of activity measured in the absence of inhibitor", "setting": "[10]; 8HUM microsomes […]", "result": "100 ± 31", "unit": "%"},
      {"measurement": "Caffeine (Paraxanthine) activity, percent of activity measured in the absence of inhibitor", "setting": "[10]; HLM […]", "result": "114 ± 37", "unit": "%"},
      {"measurement": "Debrisoquine (4-OH Debrisoquine) activity, percent of activity measured in the absence of inhibitor", "setting": "[7]", "result": "96 ± 9", "unit": "%"},
      {"measurement": "Debrisoquine (4-OH Debrisoquine) activity, percent of activity measured in the absence of inhibitor", "setting": "[1]", "result": "88 ± 19", "unit": "%"}
    ]},
    {"compound": "Nc1ccc(S(=O)(=O)Nc2ccnn2-c2ccccc2)cc1", "note": "[Sulfaphenazole, sulfaphenazole]", "values": [
      {"measurement": "Tolbutamide (OH-Tolbutamide) activity, percent of activity measured in the absence of inhibitor", "setting": "[6]; 8HUM microsomes […]", "result": "28 ± 15", "unit": "%"},
      {"measurement": "Tolbutamide (OH-Tolbutamide) activity, percent of activity measured in the absence of inhibitor", "setting": "[6]; HLM […]", "result": "14 ± 4", "unit": "%"},
      {"measurement": "Remaining tolbutamide 4-hydroxylation activity in the presence of inhibitor", "setting": "[11]; liver microsomes of control 8HUM mice", "result": "2.01 ± 0.33", "unit": "pmol/min per milligram"},
      {"measurement": "Remaining tolbutamide 4-hydroxylation activity in the presence of inhibitor", "setting": "[11]; liver microsomes of rifampicin-treated 8HUM mice", "result": "11.43 ± 9.38", "unit": "pmol/min per milligram"}
    ]},
    {"compound": "Cc1ncc2n1-c1ccc(Cl)cc1C(c1ccccc1F)=NC2", "note": "[Midazolam, midazolam]", "values": [
      {"measurement": "AUC", "setting": "[12]; rifampicin 10 mg/kg i.p. daily for 2 days pretreatment", "result": "68.8 ± 21.1", "unit": "ng·h/mL"},
      {"measurement": "AUC", "setting": "[12]; vehicle (corn oil) i.p. pretreatment", "result": "860 ± 138", "unit": "ng·h/mL"},
      {"measurement": "Km at 2 min", "setting": "[13]; both sexes, 8HUM, mouse, liver microsomes of pooled rifampicin-treated 8HUM mice", "result": "1.2 ± 0.3", "unit": "µM"},
      {"measurement": "Km at 2 min", "setting": "[13]; human, pooled human liver microsomes", "result": "0.73 ± 0.2", "unit": "µM"}
    ]}
  ]
}
